We go through 16 compounds from PubChem BioAssay AID330 (DTP/NCI, 2004).

“And” between values parts separate entries of the source, which are not always exact repeats. Equal entries are not always repeated. Toxic doses and inconclusive results are not listed.

This assay relates to P388 leukemia ip, CD2F1 mice, survival T/C. Kind of assay: NCI In Vivo Anticancer Drug Screen. Data for tumor model P388 Leukemia (intraperitoneal) in CD2F1 (CDF1) mice. The settings on record: endpoint: median survival time, higher = longer survival. The method, boiled down: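 Mice carrying the transplanted tumor received test compound or vehicle. Survival was recorded in each group, and the value is the treated-group measurement divided by that of the vehicle-treated control group.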

Where [1] appears, read: dose: 200.0 mg/kg/injection, schedule: Q01DX009 (ip), vehicle: saline with Tween-80.
The mark [2] stands for this setting: dose: 60.0 mg/kg/injection, schedule: Q01DX005 (ip), vehicle: saline.
Setting [3] is: dose: 120.0 mg/kg/injection, schedule: Q01DX005 (ip), vehicle: saline.
Setting [4] is: dose: 240.0 mg/kg/injection, schedule: Q01DX005 (ip), vehicle: saline.
[5] abbreviates: dose: 50.0 mg/kg/injection, schedule: Q01DX009 (ip), vehicle: saline with Tween-80.
Where [6] appears, read: dose: 100.0 mg/kg/injection, schedule: Q01DX009 (ip), vehicle: saline with Tween-80.

For `CO[C@H]1C[C@@H]2CC[C@@H](C)[C@@](O)(O2)C(=O)C(=O)N2CCCC[C@H]2C(=O)O[C@H]([C@H](C)C[C@@H]2CC[C@@H](O)[C@H](OC)C2)CC(=O)[C@H](C)C=C(C)[C@@H](O)[C@@H](OC)C(=O)[C@H](C)C[C@H](C)/C=C/C=C/C=C1C`, the T/C is 103 % of control (dose: 6.25 mg/kg/injection, schedule: Q01DX001 (ip), vehicle: clinical formulation); 102 % of control (dose: 6.25 mg/kg/injection, schedule: Q01DX001 (iv), vehicle: clinical formulation); 115 % of control (dose: 6.25 mg/kg/injection, schedule: Q01DX005 (iv), vehicle: clinical formulation); 107 % of control (dose: 12.5 mg/kg/injection, schedule: Q01DX001 (ip), vehicle: clinical formulation); 100 % of control (dose: 12.5 mg/kg/injection, schedule: Q01DX001 (iv), vehicle: clinical formulation); 110 % of control (dose: 12.5 mg/kg/injection, schedule: Q01DX005 (iv), vehicle: clinical formulation). The T/C was 111 % of control (dose: 25.0 mg/kg/injection, schedule: Q01DX001 (ip), vehicle: clinical formulation); 100 % of control (dose: 25.0 mg/kg/injection, schedule: Q01DX001 (iv), vehicle: clinical formulation); 113 % of control (dose: 25.0 mg/kg/injection, schedule: Q01DX005 (iv), vehicle: clinical formulation); 118 % of control (dose: 50.0 mg/kg/injection, schedule: Q01DX001 (ip), vehicle: clinical formulation); 106 % of control (dose: 50.0 mg/kg/injection, schedule: Q01DX001 (iv), vehicle: clinical formulation); 113 % of control (dose: 50.0 mg/kg/injection, schedule: Q01DX005 (iv), vehicle: clinical formulation). Further, the T/C is 110 % of control (dose: 50.0 mg/kg/injection, schedule: Q01DX005 (oral), vehicle: saline with Tween-80); 116 % of control (dose: 50.0 mg/kg/injection, schedule: Q01DX009 (oral), vehicle: saline with Tween-80); 117 % of control (dose: 100.0 mg/kg/injection, schedule: Q01DX001 (ip), vehicle: clinical formulation); 124 % of control (dose: 100.0 mg/kg/injection, schedule: Q01DX001 (ip), vehicle: saline with Tween-80); 104 % of control (dose: 100.0 mg/kg/injection, schedule: Q01DX001 (iv), vehicle: clinical formulation); 110 % of control (dose: 100.0 mg/kg/injection, schedule: Q01DX005 (ip), vehicle: clinical formulation). Also, the T/C reads like this: (dose: 100.0 mg/kg/injection, schedule: Q01DX005 (oral), vehicle: saline with Tween-80) 112 % of control; (dose: 100.0 mg/kg/injection, schedule: Q01DX009 (oral), vehicle: saline with Tween-80) 119 % of control; (dose: 200.0 mg/kg/injection, schedule: Q01DX001 (ip), vehicle: clinical formulation) 118 % of control; (dose: 200.0 mg/kg/injection, schedule: Q01DX005 (oral), vehicle: saline with Tween-80) 108 % of control; under setting [1], 122 % of control; (dose: 200.0 mg/kg/injection, schedule: Q01DX009 (oral), vehicle: saline with Tween-80) 112 % of control. Besides, the T/C (dose: 400.0 mg/kg/injection, schedule: Q01DX005 (oral), vehicle: saline with Tween-80) was 118 % of control; the T/C (dose: 400.0 mg/kg/injection, schedule: Q01DX009 (oral), vehicle: saline with Tween-80) was 116 % of control; the T/C (dose: 800.0 mg/kg/injection, schedule: Q01DX005 (oral), vehicle: saline with Tween-80) is 116 % of control; the T/C (dose: 800.0 mg/kg/injection, schedule: Q01DX009 (oral), vehicle: saline with Tween-80) is 116 % of control.
Consider `O=C(NCCc1ccccc1Br)c1ccccc1`, for which the T/C reads like this: (dose: 50.0 mg/kg/injection, schedule: Q01DX005 (ip), vehicle: Klucel (hydroxypropylcellulose) (HPC)) 100 % of control; (dose: 100.0 mg/kg/injection, schedule: Q01DX005 (ip), vehicle: Klucel (hydroxypropylcellulose) (HPC)) 97 % of control; (dose: 200.0 mg/kg/injection, schedule: Q01DX005 (ip), vehicle: Klucel (hydroxypropylcellulose) (HPC)) 93 % of control.
For `Nc1nc2c(c(-c3nc(N)nc4c3CCc3ccccc3-4)n1)CCc1ccccc1-2`, the T/C under setting [2] is 105 % of control, the T/C under setting [3] was 99 % of control and the T/C under setting [4] was 107 % of control.
Take `O=[N+]([O-])c1cc(Cl)c(Cl)cc1[N+](=O)[O-]`: the T/C was 98 % of control under setting [5] and 111 % of control under setting [6].
With `CNC(=O)n1c(N)nc(-c2ccccc2)c1-c1ccccc1`, the T/C is, setting by setting: (dose: 12.5 mg/kg/injection, schedule: Q04DX002 (ip), vehicle: saline with Tween-80) 115 % of control; (dose: 25.0 mg/kg/injection, schedule: Q04DX002 (ip), vehicle: saline with Tween-80) 115 % of control; (dose: 50.0 mg/kg/injection, schedule: Q04DX002 (ip), vehicle: saline with Tween-80) 117 % of control.
For `N=C(N)COc1ccccc1`, the T/C reads like this: (dose: 12.5 mg/kg/injection, schedule: Q01DX005 (ip), vehicle: saline) 95 % of control; (dose: 25.0 mg/kg/injection, schedule: Q01DX005 (ip), vehicle: saline) 95 % of control; (dose: 50.0 mg/kg/injection, schedule: Q01DX005 (ip), vehicle: saline) 99 % of control and 101 % of control.
On to `CC1(Cl)CC(C)(/C=C/Cl)C(Br)CC1Cl` (configuration not stated), for which the T/C (dose: 41.5 mg/kg/injection, schedule: Q01DX005 (ip), vehicle: Klucel (hydroxypropylcellulose) (HPC)) was 91 % of control; the T/C (dose: 83.0 mg/kg/injection, schedule: Q01DX005 (ip), vehicle: Klucel (hydroxypropylcellulose) (HPC)) is 91 % of control; the T/C (dose: 166.0 mg/kg/injection, schedule: Q01DX005 (ip), vehicle: Klucel (hydroxypropylcellulose) (HPC)) is 100 % of control.
Turning to `ClCc1ccc(Oc2ccc(CCl)cc2)cc1`, where the note is “dose: 12.5 mg/kg/injection, schedule: Q01DX009 (ip), vehicle: Klucel (hydroxypropylcellulose) (HPC)”, the T/C is 120 % of control.
Take `CSc1nc(Cl)c(Br)c(Sc2nc(N)nc3nc[nH]c23)n1`: the T/C under setting [5] was 122 % of control; the T/C under setting [6] is 109 % of control; the T/C (dose: 100.0 mg/kg/injection, schedule: Q04DX003 (ip), vehicle: saline with Tween-80) is 118 % of control; the T/C (dose: 200.0 mg/kg/injection, schedule: Q04DX003 (ip), vehicle: saline with Tween-80) was 150 % of control.
In the case of `COCCCNC(=S)N/N=C/c1cccc(OC)c1O`, the T/C is 101 % of control under setting [5], 111 % of control under setting [6] and 88 % of control under setting [1].
Consider `CNC(=O)OCc1nc(-c2ccccc2)oc1COC(=O)NC`, for which the T/C (dose: 12.5 mg/kg/injection, schedule: Q01DX005 (ip), vehicle: distilled water + Tween-80) was 96 % of control; the T/C (dose: 25.0 mg/kg/injection, schedule: Q01DX005 (ip), vehicle: distilled water + Tween-80) was 97 % of control; the T/C (dose: 50.0 mg/kg/injection, schedule: Q01DX005 (ip), vehicle: distilled water + Tween-80) is 92 % of control; the T/C (dose: 100.0 mg/kg/injection, schedule: Q01DX005 (ip), vehicle: distilled water + Tween-80) was 89 % of control; the T/C (dose: 200.0 mg/kg/injection, schedule: Q01DX005 (ip), vehicle: distilled water + Tween-80) is 89 % of control.
Turning to `CC1(C)OC(=O)C(CCc2ccncc2)(CCc2ccncc2)C(=O)O1`, the T/C was 115 % of control under setting [5], 104 % of control under setting [6] and 106 % of control under setting [1].
Regarding `COc1ccc(-c2nc(C)nc3c2Cc2c(ccc4ccccc24)O3)cc1`, the T/C was 98 % of control (dose: 50.0 mg/kg/injection, schedule: Q01DX009 (ip), vehicle: saline); 102 % of control (dose: 100.0 mg/kg/injection, schedule: Q01DX009 (ip), vehicle: saline); 102 % of control (dose: 200.0 mg/kg/injection, schedule: Q01DX009 (ip), vehicle: saline).
Regarding `C[Si](C)(C)S[Si](C)(C)C`, the T/C is 106 % of control (dose: 50.0 mg/kg/injection, schedule: Q01DX009 (ip), vehicle: Klucel (hydroxypropylcellulose) (HPC)) and 100 % of control (dose: 100.0 mg/kg/injection, schedule: Q01DX009 (ip), vehicle: Klucel (hydroxypropylcellulose) (HPC)).
As to `COC(=O)c1cc(-c2ccccn2)[nH]c(=O)c1C#N`, the T/C was 104 % of control under setting [2], 100 % of control under setting [3] and 97 % of control under setting [4].
`CC(C)NC(=O)OCC#CCOC(=O)NC(C)C`: the T/C (dose: 50.0 mg/kg/injection, schedule: Q01DX005 (ip), vehicle: saline with Tween-80) is 98 % of control; the T/C (dose: 100.0 mg/kg/injection, schedule: Q01DX005 (ip), vehicle: saline with Tween-80) is 90 % of control; the T/C (dose: 200.0 mg/kg/injection, schedule: Q01DX005 (ip), vehicle: saline with Tween-80) was 90 % of control.
